Measured values as given in patent US12258328B2, “6-membered heteroaryl-containing aminopyridine compounds as EGFR inhibitors” (YUHAN CORPORATION, priority 2021, dated 2025).
Read-outs that look alike come from different tables or passages of the source.

Columns and labels:
EGFR L858R/C797S = EGFR L858R/C797S (Homo sapiens, UniProt P00533, C797S/L858R); experiment: Biochemical EGFR kinase assay (Lance Ultra TR-FRET), double mutant L858R/C797S
Summary of the method: (§1)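 Kinase activity is measured by TR-FRET phosphopeptide detection. Compounds span 0.003 μM to 10 μM; the 1 h reaction at room temperature is quenched with EDTA, then labelled antibody (2 nM) is incubated 60 min before reading.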

EGFR wildtype = EGFR wildtype (Homo sapiens, UniProt P00533); experiment: Biochemical EGFR kinase assay (Lance Ultra TR-FRET), wildtype
Summary of the method: as §1

EGFR L858R/T790M/C797S = EGFR L858R/T790M/C797S (Homo sapiens, UniProt P00533, C797S/L858R/T790M); experiment: Biochemical EGFR kinase assay (Lance Ultra TR-FRET), triple mutant L858R/T790M/C797S
Summary of the method: as §1

EGFR del19/C797S = EGFR del19/C797S (Homo sapiens, UniProt P00533, C797S/DEL746-750); experiment: Biochemical EGFR kinase assay (Lance Ultra TR-FRET), double mutant del19/C797S
Summary of the method: as §1

EGFR del19/T790M/C797S = EGFR del19/T790M/C797S (Homo sapiens, UniProt P00533, C797S/DEL746-750/T790M); experiment: Biochemical EGFR kinase assay (Lance Ultra TR-FRET), triple mutant del19/T790M/C797S
Summary of the method: as §1

[1] = IC50 L858R/C797S (nM) 100 μM ATP, 100 μM ATP
[2] = Km ATP, read-out: IC50 L858R/C797S (nM) Km ATP
[3] = IC50 WT (nM) 100 μM ATP, 100 μM ATP
[4] = Km ATP, read-out: IC50 WT (nM) Km ATP
[5] = IC50 L858R/T790M/C797S (nM) 100 μM ATP, 100 μM ATP
[6] = Km ATP, read-out: IC50 L858R/T790M/C797S (nM) Km ATP
[7] = IC50 del19/C797S (nM) 100 μM ATP, 100 μM ATP
[8] = Km ATP, read-out: IC50 del19/C797S (nM) Km ATP
[9] = IC50 del19/T790M/C797S (nM) 100 μM ATP, 100 μM ATP
[10] = Km ATP, read-out: IC50 del19/T790M/C797S (nM) Km ATP

EGFR del19/T790M/C797S, sequence (P00533 with tags, fused parts or gaps DEL746-750/T790M/C797S): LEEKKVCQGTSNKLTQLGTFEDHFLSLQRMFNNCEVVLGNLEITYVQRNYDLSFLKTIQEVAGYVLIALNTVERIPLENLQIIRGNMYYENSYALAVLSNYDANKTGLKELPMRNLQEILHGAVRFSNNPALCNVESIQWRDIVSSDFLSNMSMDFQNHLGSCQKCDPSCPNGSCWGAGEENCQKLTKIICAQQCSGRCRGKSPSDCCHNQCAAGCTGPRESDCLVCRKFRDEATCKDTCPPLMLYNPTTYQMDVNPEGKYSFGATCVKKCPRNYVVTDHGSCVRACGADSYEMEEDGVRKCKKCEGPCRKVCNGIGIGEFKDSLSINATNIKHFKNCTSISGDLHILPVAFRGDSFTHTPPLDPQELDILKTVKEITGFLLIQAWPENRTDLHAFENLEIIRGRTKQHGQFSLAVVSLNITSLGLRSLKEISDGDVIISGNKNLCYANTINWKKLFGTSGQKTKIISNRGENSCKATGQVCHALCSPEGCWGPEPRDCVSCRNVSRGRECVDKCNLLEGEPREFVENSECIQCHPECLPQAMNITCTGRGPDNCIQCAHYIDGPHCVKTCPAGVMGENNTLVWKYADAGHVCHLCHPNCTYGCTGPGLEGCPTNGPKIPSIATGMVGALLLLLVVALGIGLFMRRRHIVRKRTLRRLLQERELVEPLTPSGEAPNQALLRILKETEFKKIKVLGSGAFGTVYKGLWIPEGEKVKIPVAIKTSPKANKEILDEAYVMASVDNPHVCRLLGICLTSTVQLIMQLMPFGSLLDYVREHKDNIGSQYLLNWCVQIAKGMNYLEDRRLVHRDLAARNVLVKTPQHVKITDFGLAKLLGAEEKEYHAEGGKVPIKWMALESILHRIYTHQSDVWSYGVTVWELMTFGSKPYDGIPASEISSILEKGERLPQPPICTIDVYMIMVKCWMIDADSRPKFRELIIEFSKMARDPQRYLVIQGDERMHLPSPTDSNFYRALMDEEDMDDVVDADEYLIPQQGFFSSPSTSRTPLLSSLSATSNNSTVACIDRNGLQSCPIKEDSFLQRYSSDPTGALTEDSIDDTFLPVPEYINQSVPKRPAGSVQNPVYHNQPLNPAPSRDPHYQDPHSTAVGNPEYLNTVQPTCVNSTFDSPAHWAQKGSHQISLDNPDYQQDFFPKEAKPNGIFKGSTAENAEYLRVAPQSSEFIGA
EGFR L858R/T790M/C797S, sequence (P00533 25-1210 T790M/C797S/L858R): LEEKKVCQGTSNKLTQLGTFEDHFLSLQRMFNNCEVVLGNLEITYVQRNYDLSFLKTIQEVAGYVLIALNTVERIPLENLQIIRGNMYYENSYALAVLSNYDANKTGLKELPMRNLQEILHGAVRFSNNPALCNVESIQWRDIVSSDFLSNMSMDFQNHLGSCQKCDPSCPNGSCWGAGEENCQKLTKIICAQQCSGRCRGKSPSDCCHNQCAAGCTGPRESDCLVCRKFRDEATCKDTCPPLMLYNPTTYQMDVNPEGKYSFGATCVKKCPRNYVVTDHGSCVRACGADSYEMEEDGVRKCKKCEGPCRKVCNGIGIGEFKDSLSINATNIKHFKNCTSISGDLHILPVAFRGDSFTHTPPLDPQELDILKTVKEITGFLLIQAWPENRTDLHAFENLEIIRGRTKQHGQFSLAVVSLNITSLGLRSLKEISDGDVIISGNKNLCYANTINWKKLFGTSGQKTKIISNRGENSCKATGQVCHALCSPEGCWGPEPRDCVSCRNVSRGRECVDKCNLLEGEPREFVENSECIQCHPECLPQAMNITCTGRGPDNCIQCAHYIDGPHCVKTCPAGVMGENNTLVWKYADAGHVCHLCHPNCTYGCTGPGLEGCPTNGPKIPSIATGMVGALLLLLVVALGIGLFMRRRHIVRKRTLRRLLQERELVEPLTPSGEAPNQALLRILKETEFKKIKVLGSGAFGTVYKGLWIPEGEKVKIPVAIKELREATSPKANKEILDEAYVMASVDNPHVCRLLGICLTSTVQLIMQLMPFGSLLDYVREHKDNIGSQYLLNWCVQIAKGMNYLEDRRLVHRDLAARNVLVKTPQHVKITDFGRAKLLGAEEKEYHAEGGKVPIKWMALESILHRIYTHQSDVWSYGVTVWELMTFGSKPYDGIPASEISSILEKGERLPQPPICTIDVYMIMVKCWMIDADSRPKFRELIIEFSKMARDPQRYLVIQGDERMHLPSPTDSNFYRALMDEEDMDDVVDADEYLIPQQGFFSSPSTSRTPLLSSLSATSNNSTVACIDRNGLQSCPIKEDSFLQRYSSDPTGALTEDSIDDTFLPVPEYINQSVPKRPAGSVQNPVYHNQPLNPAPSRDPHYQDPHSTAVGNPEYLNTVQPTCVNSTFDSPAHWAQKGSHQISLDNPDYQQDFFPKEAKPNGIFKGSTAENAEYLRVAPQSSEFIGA
EGFR wildtype, sequence (P00533 25-1210): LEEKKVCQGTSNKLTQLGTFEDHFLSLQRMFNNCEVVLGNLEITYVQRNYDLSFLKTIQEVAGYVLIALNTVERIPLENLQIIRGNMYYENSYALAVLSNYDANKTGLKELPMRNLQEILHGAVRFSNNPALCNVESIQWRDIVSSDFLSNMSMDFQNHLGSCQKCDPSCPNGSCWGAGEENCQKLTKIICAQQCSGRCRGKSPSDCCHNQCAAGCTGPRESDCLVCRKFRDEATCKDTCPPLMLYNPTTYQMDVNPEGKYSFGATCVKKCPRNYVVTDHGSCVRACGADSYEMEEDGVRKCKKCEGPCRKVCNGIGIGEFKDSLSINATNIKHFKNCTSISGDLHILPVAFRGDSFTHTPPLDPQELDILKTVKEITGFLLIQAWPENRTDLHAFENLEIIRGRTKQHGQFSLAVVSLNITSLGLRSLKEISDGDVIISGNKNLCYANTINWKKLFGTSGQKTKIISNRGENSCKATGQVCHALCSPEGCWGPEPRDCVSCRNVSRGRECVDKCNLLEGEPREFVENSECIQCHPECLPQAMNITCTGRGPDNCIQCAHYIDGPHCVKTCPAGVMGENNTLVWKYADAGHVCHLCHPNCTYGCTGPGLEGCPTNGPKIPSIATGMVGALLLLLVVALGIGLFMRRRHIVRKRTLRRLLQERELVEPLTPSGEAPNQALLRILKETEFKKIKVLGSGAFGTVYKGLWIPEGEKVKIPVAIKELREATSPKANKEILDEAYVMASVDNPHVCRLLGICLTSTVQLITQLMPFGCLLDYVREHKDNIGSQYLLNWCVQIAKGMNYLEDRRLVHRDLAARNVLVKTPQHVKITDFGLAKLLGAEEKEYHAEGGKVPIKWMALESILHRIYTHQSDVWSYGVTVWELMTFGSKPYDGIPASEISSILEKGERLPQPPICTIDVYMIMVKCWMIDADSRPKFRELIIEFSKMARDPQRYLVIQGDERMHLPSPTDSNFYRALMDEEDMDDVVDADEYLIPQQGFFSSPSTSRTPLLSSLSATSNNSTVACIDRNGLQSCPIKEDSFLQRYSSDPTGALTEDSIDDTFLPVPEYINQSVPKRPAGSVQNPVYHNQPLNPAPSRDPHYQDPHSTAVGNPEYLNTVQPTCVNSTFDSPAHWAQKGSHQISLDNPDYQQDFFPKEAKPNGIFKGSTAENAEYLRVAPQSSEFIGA
EGFR L858R/C797S, sequence (P00533 25-1210 C797S/L858R): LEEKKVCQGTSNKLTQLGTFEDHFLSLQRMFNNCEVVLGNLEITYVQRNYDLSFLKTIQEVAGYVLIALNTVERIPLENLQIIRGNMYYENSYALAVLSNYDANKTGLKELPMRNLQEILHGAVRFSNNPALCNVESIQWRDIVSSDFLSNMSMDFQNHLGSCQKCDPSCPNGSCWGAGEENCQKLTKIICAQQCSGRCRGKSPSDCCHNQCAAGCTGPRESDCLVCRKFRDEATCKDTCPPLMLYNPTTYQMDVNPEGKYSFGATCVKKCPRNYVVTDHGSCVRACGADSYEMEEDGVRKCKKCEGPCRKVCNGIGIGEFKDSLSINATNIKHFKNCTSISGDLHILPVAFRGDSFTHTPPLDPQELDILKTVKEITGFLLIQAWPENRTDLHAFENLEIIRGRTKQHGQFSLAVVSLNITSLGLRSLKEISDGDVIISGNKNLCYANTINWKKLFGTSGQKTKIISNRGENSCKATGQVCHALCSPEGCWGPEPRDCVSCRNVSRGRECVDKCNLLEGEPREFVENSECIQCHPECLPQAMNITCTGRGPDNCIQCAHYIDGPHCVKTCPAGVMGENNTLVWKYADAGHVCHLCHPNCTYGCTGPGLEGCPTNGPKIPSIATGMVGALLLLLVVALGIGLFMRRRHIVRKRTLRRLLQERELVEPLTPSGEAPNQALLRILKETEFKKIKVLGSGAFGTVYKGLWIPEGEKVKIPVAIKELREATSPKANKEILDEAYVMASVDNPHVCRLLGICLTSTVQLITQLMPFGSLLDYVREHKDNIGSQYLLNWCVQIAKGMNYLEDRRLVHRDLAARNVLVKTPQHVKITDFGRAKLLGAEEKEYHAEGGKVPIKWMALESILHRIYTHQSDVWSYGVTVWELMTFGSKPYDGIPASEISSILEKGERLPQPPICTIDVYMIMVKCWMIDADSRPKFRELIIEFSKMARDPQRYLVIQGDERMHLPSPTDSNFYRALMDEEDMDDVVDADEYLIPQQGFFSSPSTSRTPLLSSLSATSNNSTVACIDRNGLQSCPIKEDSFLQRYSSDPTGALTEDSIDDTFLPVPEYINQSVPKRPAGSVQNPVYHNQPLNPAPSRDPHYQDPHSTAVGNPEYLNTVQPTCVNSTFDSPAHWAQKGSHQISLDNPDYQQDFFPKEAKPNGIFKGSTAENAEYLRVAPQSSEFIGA

| Structure (SMILES) | IC50 (EGFR L858R/C797S; [1]) [nM] | IC50 (EGFR L858R/C797S; [2]) [nM] | IC50 (EGFR wildtype; [3]) [nM] | IC50 (EGFR wildtype; [4]) [nM] | IC50 (EGFR L858R/T790M/C797S; [5]) [nM] | IC50 (EGFR L858R/T790M/C797S; [6]) [nM] | IC50 (EGFR del19/C797S; [7]) [nM] | IC50 (EGFR del19/C797S; [8]) [nM] | IC50 (EGFR del19/T790M/C797S; [9]) [nM] | IC50 (EGFR del19/T790M/C797S; [10]) [nM] |
| --- | --- | --- | --- | --- | --- | --- | --- | --- | --- | --- |
| CN1CCN(c2ccc(-c3cnc(Nc4ccnc(-c5cnn(S(=O)(=O)C6CC6)c5)n4)cc3N[C@H]3CC[C@@](C)(O)CC3)nc2)CC1 [Example 83, (1s,4s)-4-((6′-((2-(1-(Cyclopropylsulfonyl)-1H-pyrazol-4-yl)pyrimidin-4-yl)amino)-5-(4-methylpiperazin-1-yl)-[2,3′-bipyridin]-4′-yl)amino)-1-methylcyclohexan-1-ol] | 0.4 | 0.1 | 24.9 | 0.2 | 0.3 | 0.2 | 0.2 | 0.2 | 0.6 | 0.7 |
| CC(C)(O)c1ccc(-c2cnc(Nc3ccnc(-c4cnn(S(=O)(=O)C5CC5)c4)n3)cc2N[C@H]2CC[C@@](C)(O)CC2)nn1 [Example 86, (1s,4s)-4-((2-((2-(1-(Cyclopropylsulfonyl)-1H-pyrazol-4-yl)pyrimidin-4-yl)amino)-5-(6-(2-hydroxypropan-2-yl)pyridazin-3-yl)pyridin-4-yl)amino)-1-methylcyclohexan-1-ol] | 11.4 | 0.4 | 1480 | 3.6 | 0.2 | 0.1 | 0.4 | 0.3 | 1.6 | 0.2 |
| CC(C)(O)c1ccc(-c2cnc(Nc3ccnc(-c4cnn(S(=O)(=O)C5CC5)c4)n3)cc2N[C@H]2CC[C@@H](CO)CC2)nn1 [Example 87, 2-(6-(6-((2-(1-(Cyclopropylsulfonyl)-1H-pyrazol-4-yl)pyrimidin-4-yl)amino)-4-(((1s,4s)-4-(hydroxymethyl)cyclohexyl)amino)pyridin-3-yl)pyridazin-3-yl)propan-2-ol] | 4.7 | 0.6 | 992 | 2.2 | 0.1 | 0.1 | 0.5 | 0.4 | 5.9 | 0.1 |
| CC(C)(O)c1ccc(-c2cnc(Nc3ccnc(-c4cnn(S(=O)(=O)C5CC5)c4)n3)cc2N[C@H]2CC[C@@H](C(C)(C)O)CC2)nn1 [Example 88, 2-(6-(6-((2-(1-(Cyclopropylsulfonyl)-1H-pyrazol-4-yl)pyrimidin-4-yl)amino)-4-(((1s,4s)-4-(2-hydroxypropan-2-yl)cyclohexyl)amino)pyridin-3-yl)pyridazin-3-yl)propan-2-ol] | 31.1 | – | > 10000 | 15.3 | 0.4 | 0.1 | 2.2 | – | 4.9 | 0.4 |
| O=S(=O)(C1CC1)n1cc(-c2nccc(Nc3cc(N[C@H]4CC[C@@H](CCO)CC4)c(-c4ccc(C(F)F)cn4)cn3)n2)cn1 [Example 94, 2-((1s,4s)-4-((6′-((2-(1-(Cyclopropylsulfonyl)-1H-pyrazol-4-yl)pyrimidin-4-yl)amino)-5-(difluoromethyl)-[2,3′-bipyridin]-4′-yl)amino)cyclohexyl)ethan-1-ol] | 170 | 6 | > 10000 | 7.2 | – | 0.9 | 13.3 | 3.9 | 4.4 | 2.7 |
| O=S(=O)(C1CC1)n1cc(-c2nccc(Nc3cc(N[C@H]4CC[C@H](CCO)CC4)c(-c4ccc(C(F)F)cn4)cn3)n2)cn1 [Example 95, 2-((1r,4r)-4-((6′-((2-(1-(Cyclopropylsulfonyl)-1H-pyrazol-4-yl)pyrimidin-4-yl)amino)-5-(difluoromethyl)-[2,3′-bipyridin]-4′-yl)amino)cyclohexyl)ethan-1-ol] | 9160 | 8480 | > 10000 | 222 | 2 | 0.9 | 1540 | 66.9 | 5.6 | 2.5 |
| O=S(=O)(C1CC1)n1cc(-c2nccc(Nc3cc(N[C@H]4CC[C@H](CCO)CC4)c(-c4cc(C(F)F)ccn4)cn3)n2)cn1 [Example 96, 2-((1r,4r)-4-((6′-((2-(1-(Cyclopropylsulfonyl)-1H-pyrazol-4-yl)pyrimidin-4-yl)amino)-4-(difluoromethyl)-[2,3′-bipyridin]-4′-yl)amino)cyclohexyl)ethan-1-ol] | 2220 | 27.4 | > 10000 | 84.7 | 0.8 | 0.7 | 224 | 68 | 2 | – |

Continued, values first:

| IC50 (EGFR L858R/C797S; [1]) [nM] | IC50 (EGFR L858R/C797S; [2]) [nM] | IC50 (EGFR wildtype; [3]) [nM] | IC50 (EGFR wildtype; [4]) [nM] | IC50 (EGFR L858R/T790M/C797S; [5]) [nM] | IC50 (EGFR L858R/T790M/C797S; [6]) [nM] | IC50 (EGFR del19/C797S; [7]) [nM] | IC50 (EGFR del19/C797S; [8]) [nM] | IC50 (EGFR del19/T790M/C797S; [9]) [nM] | IC50 (EGFR del19/T790M/C797S; [10]) [nM] | Structure (SMILES) |
| --- | --- | --- | --- | --- | --- | --- | --- | --- | --- | --- |
| 0.5 | 0.2 | 181 | 0.6 | 0.5 | 0.3 | 0.6 | 0.4 | 0.7 | 0.9 | CN1CCN(c2ccc(-c3cnc(Nc4ccnc(-c5cnn(S(=O)(=O)C6CC6)c5)n4)cc3N[C@H]3CC[C@@H](C(C)(C)O)CC3)nc2)CC1 [Example 84, 2-((1s,4s)-4-((6′-((2-(1-(Cyclopropylsulfonyl)-1H-pyrazol-4-yl)pyrimidin-4-yl)amino)-5-(4-methylpiperazin-1-yl)-[2,3′-bipyridin]-4′-yl)amino)cyclohexyl)propan-2-ol] |
| 0.2 | 0.1 | 31.7 | 0.2 | 0.3 | 0.1 | 0.3 | 0.1 | 0.4 | 0.4 | CN1CCN(c2ccc(-c3cnc(Nc4ccnc(-c5cnn(S(=O)(=O)C6CC6)c5)n4)cc3N[C@H]3CC[C@@H](CO)CC3)nc2)CC1 [Example 85, ((1s,4s)-4-((6′-((2-(1-(cyclopropylsulfonyl)-1H-pyrazol-4-yl)pyrimidin-4-yl)amino)-5-(4-methylpiperazin-1-yl)-[2,3′-bipyridin]-4′-yl)amino)cyclohexyl)methanol] |
| 3.9 | 0.2 | 1640 | 2.7 | 0.1 | 0.1 | 0.1 | 0.3 | 0.1 | 0.1 | CN(C)C[C@H]1CC[C@@H](Nc2cc(Nc3ccnc(-c4cnn(S(=O)(=O)C5CC5)c4)n3)ncc2-c2ccc(C(C)(C)O)nn2)CC1 [Example 89, 2-(6-(6-((2-(1-(Cyclopropylsulfonyl)-1H-pyrazol-4-yl)pyrimidin-4-yl)amino)-4-(((1s,4s)-4-((dimethylamino)methyl)cyclohexyl)amino)pyridin-3-yl)pyridazin-3-yl)propan-2-ol] |
| 15.1 | 0.4 | 406 | 0.4 | 0.4 | 0.3 | 0.9 | 0.4 | 0.4 | 0.6 | COC1CN(c2ccc(-c3cnc(Nc4ccnc(-c5cnn(S(=O)(=O)C6CC6)c5)n4)cc3N[C@H]3CC[C@@](C)(O)CC3)nc2)C1 [Example 90, (1s,4s)-4-((6′-((2-(1-(Cyclopropylsulfonyl)-1H-pyrazol-4-yl)pyrimidin-4-yl)amino)-5-(3-methoxyazetidin-1-yl)-[2,3′-bipyridin]-4′-yl)amino)-1-methylcyclohexan-1-ol] |
| 9.7 | 0.8 | > 10000 | 2.5 | 1.1 | 0.9 | 2.8 | 0.9 | 1.3 | 0.5 | COC1CN(c2ccc(-c3cnc(Nc4ccnc(-c5cnn(S(=O)(=O)C6CC6)c5)n4)cc3N[C@H]3CC[C@@H](CO)CC3)nc2)C1 [Example 91, ((1s,4s)-4-((6′-((2-(1-(Cyclopropylsulfonyl)-1H-pyrazol-4-yl)pyrimidin-4-yl)amino)-5-(3-methoxyazetidin-1-yl)-[2,3′-bipyridin]-4′-yl)amino)cyclohexyl)methanol] |
| 78.8 | 4.7 | 172 | 0.1 | 2.3 | 1.4 | 7.2 | 4.4 | 1.6 | 1 | COC1CN(c2ccc(-c3cnc(Nc4ccnc(-c5cnn(S(=O)(=O)C6CC6)c5)n4)cc3N[C@H]3CC[C@@H](C(C)(C)O)CC3)nc2)C1 [Example 92, 2-((1s,4s)-4-((6′-((2-(1-(Cyclopropylsulfonyl)-1H-pyrazol-4-yl)pyrimidin-4-yl)amino)-5-(3-methoxyazetidin-1-yl)-[2,3′-bipyridin]-4′-yl)amino)cyclohexyl)propan-2-ol] |
| 2.2 | 0.3 | 172 | 0.1 | 0.3 | 0.1 | 0.5 | 0.2 | 0.4 | 0.3 | COC1CN(c2ccc(-c3cnc(Nc4ccnc(-c5cnn(S(=O)(=O)C6CC6)c5)n4)cc3N[C@H]3CC[C@@H](CN(C)C)CC3)nc2)C1 [Example 93, N^6′-(2-(1-(Cyclopropylsulfonyl)-1H-pyrazol-4-yl)pyrimidin-4-yl)-N^4′-((1s,4s)-4-((dimethylamino)methyl)cyclohexyl)-5-(3-methoxyazetidin-1-yl)-[2,3′-bipyridine]-4′,6′-diamine] |
